± gives the expanded uncertainty stated by the source. One block for each molecule: values may come before it.
Tests used:
[1] = DSC
[2] = Molar enthalpy of transition or fusion; conditions: DSC
[3] = xn = mol fraction of the nth substance listed; conditions: 298.15 K, 97.59 kPa, Liquid, Vibrating tube method

Triple point temperature ([1]; Crystal 1): 470.05 ± 1.8 K
Triple point temperature ([1]; Crystal 2): 463.05 ± 1.2 K
Molar enthalpy of transition or fusion ([2]; Crystal 1): 8.5 ± 0.5 kJ/mol
Molar enthalpy of transition or fusion ([2]; Crystal 2): 9.7 ± 0.3 kJ/mol
SMILES: CS(=O)(=O)[O-].[NH4+] [ammonium methanesulfonate]

mass density ([3]; x1 = 0.0085): 1014.9 ± 5.5 kg/m3
mass density ([3]; x1 = 0.0178): 1033.1 ± 5.6 kg/m3
mass density ([3]; x1 = 0.0275): 1050.8 ± 5.7 kg/m3
mass density ([3]; x1 = 0.0381): 1068.7 ± 5.8 kg/m3
mass density ([3]; x1 = 0.051): 1088.7 ± 5.8 kg/m3
mass density ([3]; x1 = 0.0648): 1108.4 ± 5.9 kg/m3
mass density ([3]; x1 = 0.0951): 1146.2 ± 5.9 kg/m3
mass density ([3]; x1 = 0.1144): 1166.9 ± 5.9 kg/m3
mass density ([3]; x1 = 0.1387): 1190.3 ± 5.8 kg/m3
SMILES: CS(=O)(=O)[O-].[NH4+] [ammonium methanesulfonate] + O

Triple point temperature ([1]; Crystal): 625.95 ± 0.8 K
Molar enthalpy of transition or fusion ([2]; Crystal): 24 ± 0.54 kJ/mol
SMILES: CS(=O)(=O)[O-].[Na+] [sodium methanesulfonate]

mass density ([3]; x1 = 0.008): 1025 ± 5.6 kg/m3
mass density ([3]; x1 = 0.0188): 1059.9 ± 5.9 kg/m3
mass density ([3]; x1 = 0.0358): 1110.4 ± 6.2 kg/m3
mass density ([3]; x1 = 0.0438): 1132.7 ± 6.4 kg/m3
mass density ([3]; x1 = 0.0621): 1179.8 ± 6.6 kg/m3
mass density ([3]; x1 = 0.0743): 1209.3 ± 6.8 kg/m3
mass density ([3]; x1 = 0.0952): 1255.7 ± 7 kg/m3
mass density ([3]; x1 = 0.1087): 1283.5 ± 7.1 kg/m3
mass density ([3]; x1 = 0.1247): 1313.8 ± 7.2 kg/m3
SMILES: CS(=O)(=O)[O-].[Na+] [sodium methanesulfonate] + O

From the NIST ThermoML archive (doi:10.1016/j.fluid.2017.04.006)
